Measured values from ChEMBL document CHEMBL1126154, “Pyrrole mannich bases as potential antipsychotic agents” (J Med Chem, 1992).

Experiments:
[1] = test system: Rattus norvegicus; test: Antipsychotic activity at a dose 10 times the ED50 value for CAR block for production of catalepsy in the rat (following i.p. dosing); type: functional; details: ip
[2] = test system: Rattus norvegicus; test: The percentage production of catalepsy in rat at a dose of 100 mg/kg ip.; type: functional
[3] = test system: Rattus norvegicus; test: The compound was measured at a dose 10 times the ED50 value for CAR block for production of catalepsy in the rat via oral administration.; type: functional
[4] = target: Serotonin 2 (5-HT2) receptor (Rattus norvegicus, UniProt P30994+P08909+P14842); test: The compound was tested for its binding affinity towards 5-hydroxytryptamine 2 receptor by displacing [3H]ketanserin radioligand in rat cerebral cortex; type: tissue-based
[5] = target: T1, Adrenergic receptor alpha-1 (Rattus norvegicus, UniProt P15823+P23944+P43140); test: The compound was tested for its binding affinity towards Alpha-1 adrenergic receptor by displacing [3H]WB-4101 radioligand in rat cerebral cortex; type: tissue-based
T1 sequence (P15823 whole entry): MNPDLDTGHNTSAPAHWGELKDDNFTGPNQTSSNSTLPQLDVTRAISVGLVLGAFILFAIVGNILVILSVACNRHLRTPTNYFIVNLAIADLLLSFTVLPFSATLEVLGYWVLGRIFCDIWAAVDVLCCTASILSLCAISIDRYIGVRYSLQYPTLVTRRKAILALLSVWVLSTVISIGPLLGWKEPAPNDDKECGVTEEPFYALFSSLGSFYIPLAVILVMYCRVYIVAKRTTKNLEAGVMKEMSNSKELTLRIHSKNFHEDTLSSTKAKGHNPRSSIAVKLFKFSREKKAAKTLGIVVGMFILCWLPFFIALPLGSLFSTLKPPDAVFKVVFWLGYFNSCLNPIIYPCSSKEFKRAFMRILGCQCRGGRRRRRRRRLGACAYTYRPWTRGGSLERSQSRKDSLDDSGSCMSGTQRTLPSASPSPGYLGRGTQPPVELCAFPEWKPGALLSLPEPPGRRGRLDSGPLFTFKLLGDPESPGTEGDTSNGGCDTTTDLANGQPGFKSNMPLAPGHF
T1 sequence (P23944 whole entry): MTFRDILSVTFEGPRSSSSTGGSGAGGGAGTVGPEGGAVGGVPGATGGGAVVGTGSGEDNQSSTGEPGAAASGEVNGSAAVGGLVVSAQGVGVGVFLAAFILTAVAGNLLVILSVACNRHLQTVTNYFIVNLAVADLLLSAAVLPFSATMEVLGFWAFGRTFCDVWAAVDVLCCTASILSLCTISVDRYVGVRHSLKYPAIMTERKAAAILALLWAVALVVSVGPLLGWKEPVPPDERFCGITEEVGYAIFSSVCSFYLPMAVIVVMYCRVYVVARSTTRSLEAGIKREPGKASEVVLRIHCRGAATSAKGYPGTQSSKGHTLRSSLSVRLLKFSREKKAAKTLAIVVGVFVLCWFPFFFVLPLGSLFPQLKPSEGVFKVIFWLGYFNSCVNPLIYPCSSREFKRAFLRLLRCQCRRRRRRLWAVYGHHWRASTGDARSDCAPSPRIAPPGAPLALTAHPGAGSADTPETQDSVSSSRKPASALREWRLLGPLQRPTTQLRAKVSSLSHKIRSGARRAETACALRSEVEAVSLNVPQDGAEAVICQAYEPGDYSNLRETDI
T1 sequence (P43140 whole entry): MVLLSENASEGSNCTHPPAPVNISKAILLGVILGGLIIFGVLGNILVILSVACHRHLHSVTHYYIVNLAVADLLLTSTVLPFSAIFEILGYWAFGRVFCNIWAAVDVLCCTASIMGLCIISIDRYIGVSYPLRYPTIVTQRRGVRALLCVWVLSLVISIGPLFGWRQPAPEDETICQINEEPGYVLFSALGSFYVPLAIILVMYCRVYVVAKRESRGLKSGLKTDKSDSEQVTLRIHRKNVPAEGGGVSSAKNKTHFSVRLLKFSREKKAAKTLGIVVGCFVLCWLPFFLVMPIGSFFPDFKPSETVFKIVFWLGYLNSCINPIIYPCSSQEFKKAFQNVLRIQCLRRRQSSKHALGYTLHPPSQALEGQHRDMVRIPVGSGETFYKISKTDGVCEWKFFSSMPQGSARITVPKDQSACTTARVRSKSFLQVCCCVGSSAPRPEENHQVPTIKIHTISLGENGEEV

[6] = target: Serotonin 1 (5-HT1) receptor (Rattus norvegicus, UniProt P28564+P30940+P19327+P28565); test: The compound was tested for its binding affinity towards 5-hydroxytryptamine 1 receptor by displacing [3H]5-HT radioligand in rat cerebral cortex; type: tissue-based
[7] = test system: Rattus norvegicus; test: The percentage production of catalepsy in rat at a dose of 57 mg/kg ip.; type: functional
[8] = target: 5-hydroxytryptamine receptor 1B (Rattus norvegicus, UniProt P28564); test: The compound was tested for its binding affinity towards 5-hydroxytryptamine 1B receptor by displacing [3H]serotonin radioligand in rat cerebral cortex; type: tissue-based
Sequence of 5-hydroxytryptamine receptor 1B (P28564 whole entry): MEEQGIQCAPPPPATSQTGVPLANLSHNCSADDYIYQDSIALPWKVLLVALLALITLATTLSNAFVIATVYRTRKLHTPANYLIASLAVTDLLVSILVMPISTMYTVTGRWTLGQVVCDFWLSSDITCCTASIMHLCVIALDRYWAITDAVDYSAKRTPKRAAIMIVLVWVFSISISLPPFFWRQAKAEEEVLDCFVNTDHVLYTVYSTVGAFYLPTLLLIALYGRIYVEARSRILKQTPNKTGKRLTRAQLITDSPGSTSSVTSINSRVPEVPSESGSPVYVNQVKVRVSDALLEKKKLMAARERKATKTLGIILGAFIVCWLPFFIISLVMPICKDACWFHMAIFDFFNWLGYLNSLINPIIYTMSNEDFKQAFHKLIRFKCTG

[9] = test system: Rattus norvegicus; test: The percentage production of catalepsy in rat at a dose of 50 mg/kg ip.; type: functional
[10] = target: D(2) dopamine receptor (Rattus norvegicus, UniProt P61169); test: The compound was tested for its binding affinity towards Dopamine receptor D2 by displacing [3H]spiperone radioligand in rat striatum
Sequence of D(2) dopamine receptor (P61169 whole entry): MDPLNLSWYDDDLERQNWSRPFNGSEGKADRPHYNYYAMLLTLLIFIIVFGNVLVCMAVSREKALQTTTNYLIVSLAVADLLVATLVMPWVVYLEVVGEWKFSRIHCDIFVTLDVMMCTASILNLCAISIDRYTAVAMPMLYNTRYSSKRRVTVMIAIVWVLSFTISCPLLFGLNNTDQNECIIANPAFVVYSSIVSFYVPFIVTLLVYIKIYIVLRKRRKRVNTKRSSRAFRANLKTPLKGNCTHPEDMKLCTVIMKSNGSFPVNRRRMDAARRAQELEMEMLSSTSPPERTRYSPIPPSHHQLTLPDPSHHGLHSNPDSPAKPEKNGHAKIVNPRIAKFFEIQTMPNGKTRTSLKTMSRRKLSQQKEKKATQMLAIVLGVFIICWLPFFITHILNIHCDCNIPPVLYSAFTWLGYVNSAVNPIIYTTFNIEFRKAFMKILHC

[11] = test system: Rattus norvegicus; test: The percentage production of catalepsy in rat at a dose of 54 mg/kg ip.; type: functional
[12] = test system: Rattus norvegicus; test: The percentage production of catalepsy in rat at a dose of 37 mg/kg ip.; type: functional
[13] = target: T2, 5-hydroxytryptamine receptor 1A (Rattus norvegicus, UniProt P19327); test: Binding affinity towards 5-hydroxytryptamine 1A receptor by displacing [3H]WB-4101 from rat hippocampus; type: tissue-based
T2 sequence (P19327 whole entry): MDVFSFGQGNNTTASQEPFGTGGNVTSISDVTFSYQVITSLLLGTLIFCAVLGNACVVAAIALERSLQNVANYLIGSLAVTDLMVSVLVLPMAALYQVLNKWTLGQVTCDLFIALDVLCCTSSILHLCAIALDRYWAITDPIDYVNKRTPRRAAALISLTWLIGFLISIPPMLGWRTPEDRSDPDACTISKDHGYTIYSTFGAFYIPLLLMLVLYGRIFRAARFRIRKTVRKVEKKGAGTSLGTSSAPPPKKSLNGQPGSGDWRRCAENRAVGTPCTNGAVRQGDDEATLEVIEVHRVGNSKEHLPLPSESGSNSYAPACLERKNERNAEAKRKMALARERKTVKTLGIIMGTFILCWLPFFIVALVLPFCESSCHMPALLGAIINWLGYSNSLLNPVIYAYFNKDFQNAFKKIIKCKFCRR

[14] = test system: Rattus norvegicus; test: The percentage production of catalepsy in rat at a dose of 90 mg/kg ip.; type: functional
[15] = species on record: Rattus norvegicus; test: ED50 value for catalepsy indicates the dose required to produce a 50% of maximum catalepsy score.; type: functional
[16] = test system: Rattus norvegicus; test: The percentage production of catalepsy in rat at a dose of 70 mg/kg ip.; type: functional
[17] = test system: Rattus norvegicus; test: The percentage production of catalepsy in rat at a dose of 27 mg/kg ip.; type: functional
[18] = species on record: Rattus norvegicus; test: ED50 value for catalepsy indicates the dose required to produce a 50% of maximum catalepsy score. parentheses; type: functional
[19] = test system: Rattus norvegicus; test: The percentage production of catalepsy in rat at a dose of 20 mg/kg ip.; type: functional
[20] = Rattus norvegicus, po, read-out: ED50

Row | Structure (SMILES) | ED50 [1] [mg/kg] | ED50 [3, 20] [mg/kg] | Ki [4] [nM] | Ki [5] [nM] | Ki [6] [nM] | also measured
1 | CC(C)c1ccccc1N1CCN(Cc2ccc(CN3CCCCCC3=O)n2C)CC1 | 10 | > 30 | 110 | 53.9 | 82.1 | % catalepsy at 100 mg/kg [2]: 17%
2 | CC(C)Oc1ccccc1N1CCN(Cc2ccc(CN3CCCCCC3=O)n2C)CC1 | 5.7 | 18.9 | 1000 | 16.3 | 68.8 | % catalepsy at 57 mg/kg [7]: 26%
3 | Cn1c(CN2CCN(c3cccc(Cl)c3)CC2)ccc1CN1CCCCC1=O | 10.4 | – | – | – | – | Ki [8]: 95 nM; % catalepsy at 50 mg/kg [9]: 28%
4 | Cc1nc2sccn2c(=O)c1CCN1CCC(=C(c2ccc(F)cc2)c2ccc(F)cc2)CC1 [RITANSERIN] | > 3 | – | – | 49.5 | – | Ki [10]: 53.2 nM
5 | CC(C)Oc1ccccc1N1CCN(Cc2ccc(CN3CCCCC3=O)n2C)CC1 [RWJ-25730] | – | – | 1006 | – | – | % catalepsy at 54 mg/kg [11]: 12.1%; ED50 [3]: 10.4 mg/kg
6 | CCC(C)Oc1ccccc1N1CCN(Cc2ccc(CN3CCCCC3=O)n2C)CC1 (configuration not stated) | 3.7 | – | 267 | 17.4 | 29.3 | Ki [8]: 45 nM; % catalepsy at 37 mg/kg [12]: 17%; Ki [13]: 1.8 nM
7 | CC(C)c1ccccc1N1CCN(Cc2ccc(CN3CCCCC3=O)n2C)CC1 | 8.9 | > 30 | 137 | – | 41.3 | % catalepsy at 90 mg/kg [14]: 19%
8 | CN1CCN(C2=Nc3cc(Cl)ccc3Nc3ccccc32)CC1 [CLOZAPINE] | – | 32.5 | – | – | – | ED50 [15]: > 70 mg/kg; % catalepsy at 70 mg/kg [16]: 10%
9 | CC(C)Oc1ccccc1N1CCN(Cc2ccc(CN3CCCC3=O)n2C)CC1 | 2.2 | > 20 | 386 | 7.3 | 120 | % catalepsy at 27 mg/kg [17]: 52%
10 | COc1ccccc1N1CCNCC1 | 5.6 | – | > 100 | – | 28 | ED50 [18]: > 45 mg/kg
11 | CCOc1ccccc1N1CCN(Cc2ccc(CN3CCCC3=O)n2C)CC1 | 1.8 | 32 | 455 | 27.5 | 76 | % catalepsy at 20 mg/kg [19]: 97%
